The text below walks through data of patent US7091040B1, “P450/acetaminophen genetically directed enzyme prodrug therapy (GDEPT)” (Innovata PLC, priority 1999, dated 2006).

Data set [1] can be described thus: Viability of H1A2 MZ cells (stably transfected with human CYP1A2) incubated with acetaminophen, trypan blue exclusion. As to conditions: Chinese hamster. As for the experimental part: (§1) For cell viability experiments 200,000 cells per well were plated on 12 well plates (Beckton-Dickenson, Oxford, UK), using the medium and conditions required by the tumour cell line and allowed to adhere overnight. After this the cells were washed with PBS before the addition of acetaminophen in 0.1 ml PBS (concentrations of 0.1–20 mM acetaminophen were dissolved in PBS by sonication) and then maintained at 37° C. At the appropriate time points, cells were removed from the plates by trypsinisation and collected by centrifugation. Cell viability was measured as ability to exclude trypan blue. Cells were counted at ×100 magnification using an Improved Neubauer haemocytometer; all cell counts are the mean of duplicate determinations of five fields from duplicate experiments.
(§2) V79 MZ Chinese hamster cells were maintained in Dulbecco-Vogt's modified Eagle's Medium (DMEM) supplemented with 10% foetal calf serum 9FCS), 2 mM L-glutamine, penicillin (100 U/ml and streptomycin (100 μg/ml) (all tissue culture reagents were obtained from Gibco BRL, Paisley, UK). H1A2 MZ cells, which are V79 MZ cells transfected with the human CYP1A2 gene, were also maintained in supplemented DMEM with the addition of geneticin at a concentration of 4 mg/ml. SK-OV-3 cells were grown in DMEM supplemented with 15% FCS and 2 mM L-glutamine, without the addition of antibiotics. RPMI-1640 medium with 10% FCS, 2 mM L-glutamine, penicillin (100 U/ml) and streptomycin ([…]) was required by the HCT116 cells. These cell lines were maintained at 37° C. with 100% humidity and 5% CO2. […] At confluence cells were removed from tissue culture flasks by inubation with trypsin-EDTA for 5 min, diluted 1:3–1:6 in fresh medium and seeded onto fresh flasks. The tumour cell lines were obtained from the European Collection of Cell Cultures.

The next data set relates to H1A2 MZ cells. The data set is described as above. As to conditions: H1A2 MZ cells; 0.1 mM acetaminophen; 6 h. As for the experimental part:
as §1, §2

The viability is a read-out of living cells in per cent, often relative to untreated cells. With `CC(=O)Nc1ccc(O)cc1` [acetaminophen], in data set [1], the viability at 6 h, 1 mM came out at 62% and the viability at 6 h, 4 mM came out at 8%. Moreover, the cytotoxicity result in the data set on H1A2 MZ cells is “No cytotoxicity”.
